The values that follow come from patent US20150374725A1, “METHODS AND COMPOSITIONS FOR TREATING AND PREVENTING INTESTINAL INJURY AND DISEASES RELATED TO TIGHT JUNCTION DYSFUNCTION” (PRELIEF INC., priority 2013, published 2015).

The structures appear in SMILES notation.

Series [1] concerns Caco-2 cells. As to the kind of experiment: Apical to basolateral [14C]mannitol flux during hypoxia. Format: cell-based, human. To be noted: FIG. 5. How it is done: (§1) The effect of hypoxia on transepithelial permeability was measured for each parameter in the presence and absence of CGP. Cells were grown to confluence in normoxic conditions on transwell inserts, then transferred to a hypoxia chamber (95% N2/5% CO2) and media was changed to one sparged with 95% N2/5% CO2 and containing no glucose. Under these conditions, which simulate ischemia, the partial pressure of residual oxygen is less than 25 mm Hg (6%). Control wells contained only media; the remaining wells contained increasing concentrations of calcium glycerophosphate. TEER and mannitol flux were measured in the hypoxia chamber. E-Cadherin expression or S1P determination was determined in room air using samples prepared in the hypoxia chamber. Hypoxia may decrease TEER and S1P, increase both apical to basolateral and basolateral to apical mannitol flux without changing E-cadherin expression. These effects may be mitigated by CGP.
Hypoxia/ischemia is a state of diminished oxygen and nutrient supply such that cellular demands are not met. […] It was hypothesized that the increased transepithelial permeability is the consequence of intestinal hypoxia (itself a consequence of diversion of blood flow from the gut during heavy exercise), and that the permeability might be alleviated by CGP treatment. […]

The test system of series [2] is Caco-2 cells. As to the kind of experiment: Mannitol Flux Assay under ischemia-mimicking conditions (no glucose, 1% oxygen). In kind it is cell-based, human. On the procedure:
Mannitol Flux Assay was performed as follows. At the start of the experiment (time 0), the media on the cells was changed to one containing no glucose and no fetal calf serum, and the environment was changed from 95% […]/5% CO2, to 1% oxygen, 5% CO2 and 94% nitrogen. These conditions mimic ischemia (no food, no oxygen).
It was observed that cells responded to the ischemia conditions by letting go of non-essential functions, like maintaining tight junctions. It appears that by adding CGP, the cells were able to retain tight junction integrity for a longer period of time.
Specifically, Table 2 and FIG. 4 show the percentage increase in mannitol penetration at two and four hours after CGP administration. The movement of mannitol is inversely proportional to the tightness of the tight junctions. It can be seen that the magnitude of the increase in tightness of the tight junctions (or decrease in mannitol flux) was proportional to the concentration of CGP in the media. While it is possible that the cells are merely using the glycerol phosphate to replace glucose, this is extremely unlikely, as the effect persists even at 0.000001 molar CGP. The usual glucose concentration in the media is around 10 mM, ten times greater than the highest CGP concentration, and 10,000 times greater than the lowest concentration of CGP.

The subject of series [3] is Caco-2 cells. As to the kind of experiment: TEER during cytomix treatment. Format: cell-based, human. The following applies: FIG. 8. On the procedure:
The effect of exogenous cytokines was measured for each parameter in the presence and absence of CGP. Both hypoxia and celiac disease are characterized by the release of cytokines by cells of the immune system. These inflammatory mediators increase monolayer permeability (M. Bayardo et al. Clin Exp Immunol.; 168(1):95-104 (2012)). Cells were grown to confluence on transwell inserts, then challenged with a mixture of the cytokines TNFα (tumor necrosis factor alpha), ILβ (interleukin beta), and IFγ (interferon gamma) (“cytomix”) in the presence or absence of increasing concentrations of CGP. At the appropriate time points, apical to basolateral mannitol flux was measured. TEER, E-Cadherin expression and media concentrations of S1P were measured in separate experiments. […] Exogenous cytokines may decrease TEER and increase mannitol flux.
Cytokines are a category of small proteins that are important in cell-cell signaling. There are many types and functions of cytokines. Three of the cytokines, TNFα (tumor necrosis factor alpha), ILβ (interleukin beta), and IFγ (interferon gamma) are involved in cell signaling during inflammation. […] First, neutrophils and other cells mediating the immune response are recruited to ischemic tissue. Second, the intestinal damage of celiac disease is dependent on inflammation. […]

For series [4], the system named is Caco-2 cells. As to the kind of experiment: Baseline trans-epithelial electrical resistance (TEER). Format: cell-based, human.
Series [5] has as its system Caco-2 cells. The series can be described thus: TEER during hypoxia. The following applies: FIG. 6. Format: cell-based, human. How it is done: as §1
Hypoxia/ischemia is a state of diminished oxygen and nutrient supply such that cellular demands are not met. […]
For these studies, cells were grown on transwells until confluent, as measured by TEER values of […]. As there is some variability in baseline TEER, all data have been expressed as a % of baseline TEER. […]

Another series in a line: Solubility in water. Format: physicochemical.
For series [6], the system named is Caco-2 cells. The series can be described thus: Transepithelial mannitol flux induced by cytomix. To be noted: cytomix plus CGP, FIG. 7. In kind it is cell-based, human.
Protocol: The effect of exogenous cytokines was measured for each parameter in the presence and absence of CGP. […] Cells were grown to confluence on transwell inserts, then challenged with a mixture of the cytokines TNFα (tumor necrosis factor alpha), ILβ (interleukin beta), and IFγ (interferon gamma) (“cytomix”) in the presence or absence of increasing concentrations of CGP. At the appropriate time points, apical to basolateral mannitol flux was measured. TEER, E-Cadherin expression and media concentrations of S1P were measured in separate experiments.
Series [7] concerns Caco-2 cells. As to the kind of experiment: Baseline E-cadherin expression. In kind it is cell-based, human. How it is done:
(3) E-Cadherin Expression:
E-cadherin is the principle protein of tight junctions. The level of E-cadherin is measured in homogenized Caco-2 cells by western blot analysis using commercially available antibodies. Since it is possible that E-cadherin might be expressed as a protein, but sequestered away from the cell membrane, surface E-cadherin is also measured using either flow cytometry or fluorescent microscopy. The ratio of surface to total E-cadherin is calculated. The expression levels of E-cadherin are measured in Caco-2 cells in the presence and absence of CGP. The expression levels of other proteins of tight junctions in Caco-2 cells in the presence or absence of CGP can also be measured using methods known in the art in view of the present disclosure.

In series [8] the test system is Caco-2 cells. The series can be described thus: Baseline sphingosine 1-phosphate in media by ELISA. In kind it is cell-based, human. The following applies: 24 hours incubation, increasing concentrations of CGP, FIG. 3. How it is done:
It is believed that CGP elevates S1P concentrations by inhibiting dephosphorylation. S1P concentrations are measured in the media of Caco-2 cells using a commercially available ELISA kit (e.g., Echelon Catalog # K-1900). The S1P concentrations are measured in the media of Caco-2 cells in the presence and absence of CGP. Cells were incubated for 24 hours in the presence of increasing concentrations of CGP. The media was removed and assayed for […] by enzyme-linked immunoassay (ELISA).

Series [9] concerns Caco-2 cells. As to the kind of experiment: Baseline mannitol flux across Caco-2 monolayers on transwell inserts. Format: cell-based, human. To be noted: increasing concentrations of CGP, FIG. 1. How it is done:
Experiments were conducted on Caco-2 cells, a line of heterogeneous human epithelial colorectal adenocarcinoma cells derived from a colorectal carcinoma and grown on transwell permeable inserts. Despite their origins, in culture these cells express the characteristics of small intestinal enterocytes upon prolonged culture (C. Jumarie et al. J Cell. Physiol. 149: 24-33, (1991)). They are widely used as a model of transepithelial transport in the small intestine, and are considered a model for celiac disease (G. Iacomino et al. J Agric Food Chem. 6; 61(5):1088-962013 (2013); I. Caputo et al. PLoS One. 7(9):e45209 (2012); T. Rauhavirta et al. J Clin Immunol.; 33(1):134-42 (2013)).
The TEER results are verified by measuring the flux of mannitol, a polyhydroxy alcohol, across the cell monolayer. Mannitol flux is exclusively by the paracellular route, so that its movement is inversely proportional to the tightness of the tight junctions. Flux is measured in both apical to basolateral and basolateral to apical directions. The rate of flux is used to calculate a permeability coefficient for the monolayers. […]
Baseline values were obtained for each of these parameters in unstimulated cells in the presence and absence of increasing concentrations of CGP. The time course of TEER development, as well as the appropriate concentration of CGP, was determined experimentally. […]

The next series deals with cultured enterocytes. The following applies: cited from earlier work.

For `O=P([O-])([O-])OCC(O)CO.[Ca+2]` (centres unmarked) [CGP, 1,2,3-propanetriol, mono(dihydrogen phosphate) calcium salt (1:1)], the “time dependence of the effect on hypoxia induced mannitol flux” value in the series with Caco-2 cells [1] was “diminished by four hours and absent by five hours”. The “effect on hypoxia induced mannitol flux” value with Caco-2 cells [1] (concentration dependent) is given as “significantly reduced”. The “mannitol penetration, Disintegrations Per Minute” value in the series with Caco-2 cells [2] (CGP 0.000001 M, 2 hours) was 77.04 Disintegrations Per Minute; in the series on Caco-2 cells [2] (CGP 0.000001 M, 4 hours), 275.0632 Disintegrations Per Minute; with Caco-2 cells [2] (CGP 0.00001 M, 2 hours), 67.95 Disintegrations Per Minute; with Caco-2 cells [2] (CGP 0.00001 M, 4 hours) it was 195.9237 Disintegrations Per Minute; in the series on Caco-2 cells [2] (CGP 0.0001 M, 2 hours), 50.47 Disintegrations Per Minute; with Caco-2 cells [2] (CGP 0.0001 M, 4 hours), 188.7996 Disintegrations Per Minute. Further, the “mannitol penetration, Disintegrations Per Minute” value in the series on Caco-2 cells [2] (CGP 0.001 M, 2 hours) is given as 23.11 Disintegrations Per Minute; in the series with Caco-2 cells [2] (CGP 0.001 M, 4 hours), 150.2845 Disintegrations Per Minute. In addition, the “lowest CGP concentration at which the effect on mannitol penetration persists” value in the series on Caco-2 cells [2] (ischemia-mimicking conditions, Table 2 and FIG. 4) stood at 1000 nM. The “CGP effect on TEER” value in the series with Caco-2 cells [3] (24 hours) is reported as “all CGP effect was lost”. Moreover, in the series with Caco-2 cells [3] (ten hours, all CGP treated groups except 1 μM), the “TEER versus cytomix alone and control” value was “significantly greater than cytomix alone and not different from control”. Further, the “persistence of the CGP effect on baseline TEER” value in the series with Caco-2 cells [4] (FIG. 2) is listed as “gone by four hours”. In addition, in the series on Caco-2 cells [4] (FIG. 2, noticeable at two hours), the “effect on the citrate-induced reduction in baseline TEER” value is reported as “prevented”. In addition, the “effect on TEER during hypoxia (% of baseline TEER)” value in the series on Caco-2 cells [5] is on record as “preserved TEER in a concentration dependent manner”. In the series with Caco-2 cells [5], the “time dependence of the effect on TEER during hypoxia” value is “by five hours there was no longer a discernible effect”. Further, in the series “Solubility in water”, the solubility in water entry is given as “approximately 1 gram in 100 mL”. The “effect on cytomix-induced increase in mannitol permeability” value in the series on Caco-2 cells [6] is recorded as “delayed the permeability increase in a concentration-dependent manner”. In the series on Caco-2 cells [7], the “effect on E-Cadherin expression” value is on record as “may increase, but most likely does not change”. For the same molecule, the “effect on sphingosine 1-phosphate concentrations in the media” value with Caco-2 cells [8] is recorded as “does not appear to have any effect”. Also, the “effect on baseline mannitol flux across the barrier” value in the series on Caco-2 cells [9] is given as “no significant effect”.
In the case of `CCCCCCCCCCCCC/C=C/[C@@H](O)[C@@H](N)COP(=O)(O)O` [S1P, sphingosine-1-phosphate], the “effect on tightness of existing tight junctions” value with cultured enterocytes is “increases”.
